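Cells were grown in 96-well plates and exposed to each compound for 48 hours at five concentrations; endpoints were interpolated linearly between bracketing concentrations, or set to the highest concentration if not reached. Abbreviation: GI50, concentration required for 50% inhibition of growth.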 Activity calls are given as the source filed them. Rule as the data show it: active = GI50 up to about 1.1 µM and inactive = higher.
Tests used:
Test in all cases: DTP human tumour cell line panel, 48 h
[1] = system: 786-0
[2] = system: A498
[3] = system: A549
[4] = system: ACHN
[5] = system: CAKI-1
[6] = system: CCRF-CEM
[7] = system: COLO 205
[8] = system: DLD-1
[9] = system: DMS-114
[10] = system: DMS-273
[11] = system: EKVX
[12] = system: HCC 2998
[13] = system: HCT-116
[14] = system: HCT-15
[15] = system: HL-60
[16] = system: HOP-18
[17] = system: HOP-62
[18] = system: HOP-92
[19] = system: HT-29
[20] = system: IGROV-1
[21] = system: K562
[22] = system: KM-20L2
[23] = system: KM12
[24] = system: LOX IMVI
[25] = system: LXFL 529
[26] = system: M14
[27] = system: M19-MEL
[28] = system: MOLT-4
[29] = system: Malme-3M
[30] = system: NCI-H226
[31] = system: NCI-H23
[32] = system: NCI-H460
[33] = system: NCI-H522
[34] = system: OVCAR-3
[35] = system: OVCAR-4
[36] = system: OVCAR-5
[37] = system: OVCAR-8
[38] = system: RPMI-8226
[39] = system: RXF 393
[40] = system: RXF 631
[41] = system: SF-268
[42] = system: SF-295
[43] = system: SF-539
[44] = system: SK-MEL-28
[45] = system: SK-MEL-2
[46] = system: SK-OV-3
[47] = system: SN12C
[48] = system: SNB-19
[49] = system: SNB-75
[50] = system: SW-620
[51] = system: TK-10
[52] = system: U-251
[53] = system: UACC-257
[54] = system: UACC-62
[55] = system: UO-31
[56] = system: SK-MEL-5
[57] = system: SNB-78
[58] = system: SR
[59] = system: XF498

## CSc1ccc2c(cc1=O)[C@@H](NC(=O)c1cccc([N+](=O)[O-])c1)CCc1cc(O)c(O)c(O)c1-2
[1]
  GI50: 61.2 µM (inactive)
[2]
  GI50: 27.7 µM (inactive)
[3]
  GI50: 53.6 µM (inactive)
[4]
  GI50: > 100 µM (inactive)
[5]
  GI50: 67.3 µM (inactive)
[6]
  GI50: 34 µM (inactive)
[7]
  GI50: 38.9 µM (inactive)
[8]
  GI50: 43.8 µM (inactive)
[9]
  GI50: 24.4 µM (inactive)
[10]
  GI50: 32 µM (inactive)
[11]
  GI50: 50.9 µM (inactive)
[12]
  GI50: 92.7 µM (inactive)
[13]
  GI50: 20 µM (inactive)
[14]
  GI50: 36.3 µM
[15]
  GI50: 26.1 µM (inactive)
[16]
  GI50: > 100 µM (inactive)
[17]
  GI50: > 100 µM (inactive)
[18]
  GI50: > 100 µM (inactive)
[19]
  GI50: 37.8 µM (inactive)
[20]
  GI50: 46.2 µM (inactive)
[21]
  GI50: 26.6 µM (inactive)
[22]
  GI50: 23 µM (inactive)
[23]
  GI50: 31.2 µM (inactive)
[24]
  GI50: 17.5 µM (inactive)
[25]
  GI50: 35.8 µM (inactive)
[26]
  GI50: 25.3 µM (inactive)
[27]
  GI50: 22.1 µM (inactive)
[28]
  GI50: 21.6 µM (inactive)
[29]
  GI50: 81.3 µM (inactive)
[30]
  GI50: 24.2 µM (inactive)
[31]
  GI50: 33 µM (inactive)
[32]
  GI50: 54.2 µM (inactive)
[33]
  GI50: 12.6 µM (inactive)
[34]
  GI50: 35.5 µM (inactive)
[35]
  GI50: 50 µM (inactive)
[36]
  GI50: > 100 µM (inactive)
[37]
  GI50: 66.5 µM (inactive)
[38]
  GI50: 28.1 µM (inactive)
[39]
  GI50: 51.2 µM (inactive)
[40]
  GI50: 36.1 µM (inactive)
[41]
  GI50: 57.9 µM (inactive)
[42]
  GI50: 42.4 µM (inactive)
[43]
  GI50: 26.2 µM (inactive)
[44]
  GI50: > 100 µM (inactive)
[45]
  GI50: 34.8 µM (inactive)
[46]
  GI50: 42.4 µM (inactive)
[47]
  GI50: 27.3 µM (inactive)
[48]
  GI50: > 100 µM (inactive)
[49]
  GI50: 25.1 µM (inactive)
[50]
  GI50: 23.5 µM (inactive)
[51]
  GI50: > 100 µM (inactive)
[52]
  GI50: 22.8 µM (inactive)
[53]
  GI50: 87.9 µM (inactive)
[54]
  GI50: 18.3 µM (inactive)
[55]
  GI50: > 100 µM (inactive)

## O=C1CN=C(C[N+](=O)[O-])c2ccccc21
[1]
  GI50: > 100 µM (inactive)
[2]
  GI50: > 100 µM (inactive)
[3]
  GI50: > 100 µM (inactive)
[4]
  GI50: > 100 µM (inactive)
[5]
  GI50: > 100 µM (inactive)
[7]
  GI50: > 100 µM (inactive)
[8]
  GI50: > 100 µM (inactive)
[9]
  GI50: > 100 µM (inactive)
[10]
  GI50: > 100 µM (inactive)
[11]
  GI50: > 100 µM (inactive)
[13]
  GI50: > 100 µM (inactive)
[14]
  GI50: > 100 µM
[15]
  GI50: > 100 µM (inactive)
[16]
  GI50: > 100 µM (inactive)
[17]
  GI50: > 100 µM (inactive)
[18]
  GI50: > 100 µM (inactive)
[19]
  GI50: > 100 µM (inactive)
[20]
  GI50: > 100 µM (inactive)
[21]
  GI50: > 100 µM (inactive)
[22]
  GI50: > 100 µM (inactive)
[23]
  GI50: > 100 µM (inactive)
[25]
  GI50: > 100 µM (inactive)
[26]
  GI50: > 100 µM (inactive)
[28]
  GI50: > 100 µM (inactive)
[29]
  GI50: > 100 µM (inactive)
[30]
  GI50: > 100 µM (inactive)
[31]
  GI50: > 100 µM (inactive)
[32]
  GI50: > 100 µM (inactive)
[33]
  GI50: > 100 µM (inactive)
[34]
  GI50: > 100 µM (inactive)
[35]
  GI50: > 100 µM (inactive)
[36]
  GI50: > 100 µM (inactive)
[37]
  GI50: > 100 µM (inactive)
[38]
  GI50: > 100 µM (inactive)
[40]
  GI50: > 100 µM (inactive)
[41]
  GI50: > 100 µM (inactive)
[42]
  GI50: > 100 µM (inactive)
[43]
  GI50: > 100 µM (inactive)
[44]
  GI50: > 100 µM (inactive)
[45]
  GI50: > 100 µM (inactive)
[56]
  GI50: > 100 µM (inactive)
[46]
  GI50: > 100 µM (inactive)
[47]
  GI50: > 100 µM (inactive)
[48]
  GI50: > 100 µM (inactive)
[49]
  GI50: > 100 µM (inactive)
[57]
  GI50: > 100 µM (inactive)
[58]
  GI50: > 100 µM (inactive)
[50]
  GI50: > 100 µM (inactive)
[52]
  GI50: > 100 µM (inactive)
[53]
  GI50: > 100 µM (inactive)
[55]
  GI50: > 100 µM (inactive)

## COc1cc(CN[C@H]2CCc3cc(OC)c(OC)c(OC)c3-c3ccc(SC)c(=O)cc32)cc(OC)c1
[1]
  GI50: 0.0468 µM (active)
[2]
  GI50: 0.0306 µM (active)
[3]
  GI50: 0.0376 µM (active)
[4]
  GI50: 0.0439 µM (active)
[5]
  GI50: 0.0566 µM (active)
[7]
  GI50: 0.0325 µM (active)
[8]
  GI50: 0.0411 µM (active)
[9]
  GI50: 0.0222 µM (active)
[10]
  GI50: 0.0341 µM (active)
[11]
  GI50: 0.0828 µM (active)
[12]
  GI50: 0.0319 µM (active)
[13]
  GI50: 0.0399 µM (active)
[14]
  GI50: 0.0483 µM
[15]
  GI50: 0.0394 µM (active)
[17]
  GI50: 0.0562 µM (active)
[18]
  GI50: 0.187 µM (active)
[19]
  GI50: 0.0249 µM (active)
[20]
  GI50: 0.0403 µM (active)
[21]
  GI50: 0.0317 µM (active)
[22]
  GI50: 0.0206 µM (active)
[23]
  GI50: 0.0385 µM (active)
[24]
  GI50: 0.0465 µM (active)
[25]
  GI50: 0.0494 µM (active)
[26]
  GI50: 0.0322 µM (active)
[27]
  GI50: 0.0308 µM (active)
[28]
  GI50: 0.452 µM (active)
[29]
  GI50: 0.0575 µM (active)
[30]
  GI50: 0.0318 µM (active)
[31]
  GI50: 0.0286 µM (active)
[32]
  GI50: 0.0361 µM (active)
[33]
  GI50: 0.0245 µM (active)
[34]
  GI50: 0.0334 µM (active)
[35]
  GI50: 0.0731 µM (active)
[36]
  GI50: 0.0499 µM (active)
[37]
  GI50: 0.0481 µM (active)
[38]
  GI50: 0.0324 µM (active)
[39]
  GI50: 0.0266 µM (active)
[40]
  GI50: < 0.01 µM (active)
[41]
  GI50: 0.043 µM (active)
[42]
  GI50: 0.0336 µM (active)
[43]
  GI50: 0.0206 µM (active)
[44]
  GI50: 0.0386 µM (active)
[45]
  GI50: 0.0463 µM (active)
[56]
  GI50: 0.0336 µM (active)
[46]
  GI50: 0.0284 µM (active)
[47]
  GI50: 0.0367 µM (active)
[48]
  GI50: 0.0681 µM (active)
[49]
  GI50: 0.0243 µM (active)
[57]
  GI50: 0.0538 µM (active)
[58]
  GI50: < 0.01 µM (active)
[50]
  GI50: 0.0347 µM (active)
[51]
  GI50: 0.0807 µM (active)
[52]
  GI50: 0.0324 µM (active)
[53]
  GI50: 0.0566 µM (active)
[54]
  GI50: 0.0238 µM (active)
[55]
  GI50: 0.0938 µM (active)
[59]
  GI50: 59.6 nM (active)
